The values below come from patent publication US8134004B2, “Substituted N-bicyclicalkyl bicycliccarboxyamide compounds” (Pfizer Inc., priority 2006, dated 2012).

The target of this experiment is human VR1 (Homo sapiens, UniProt Q8NER1). Put plainly: Human VR1 antagonist assay (Ca2+ imaging). The following applies: Ca2+ imaging assay using human VR1 highly expressing cells, fura-2/AM; agonist stimulation (capsaicin 300 nM or acid pH 5.8), not given. The class given is cell-based. An excerpt:
Human VR1 Antagonist Assay
VR1 antagonistic activity can be determined by the Ca^2+ imaging assay using human VR1 highly expressing cells. The cells that highly express human VR1 receptors are obtainable from several different conventional methods. The one standard method is cloning from human Dorsal Root Ganglion (DRG) or kidney according to the methods such as described in the journal article; Nature, 389, pp 816-824, 1997. Alternatively VR1 receptors highly expressing human keratinocytes are also known and published in the journal article (Biochemical and Biophysical Research Communications, 291, pp 124-129, 2002). […] Furthermore, the method to up regulate human VR1 gene, which is usually a silent gene or don't produce detectable level of VR1 receptors, is also available to obtain propriety cells. Such genetic modification method was described in detail; Nat. Biotechnol., 19, pp 440-445, 2001.
The cells that express human VR1 receptors were maintained in culture flask at 37° C. in an environment containing 5% CO2 until use in the assay. The intracellular Ca^2+ imaging assay to determine VR1 antagonistic activities were done by following procedures.
The culture medium was removed from the flask and fura-2/AM fluorescent calcium indicator was added to the flask at a concentration of 5 μM in the medium. The flask was placed in CO2 incubator and incubated for 1 hour. Then the cells expressing the human VR1 receptors were detached from the flask follow by washing with phosphate buffer saline, PBS(−) and re-suspended in assay buffer. The 80 μl of aliquot of cell suspension (3.75×10^5 cells/ml) was added to the assay plate and the cells were spun down by centrifuge (950 rpm, 20° C., 3 minutes).
The compounds of the examples were tested in the Human VR1 antagonist assay described above.
The capsaicin-induced changes in the intracellular calcium concentration were monitored using FDSS 6000 (Hamamatsu Photonics, Japan), a fluorometric imaging system. The cell suspension in Krebs-Ringer HEPES (KRH) buffer (115 mM NaCl, 5.4 mM KCl, 1 mM MgSO4, 1.8 mM CaCl2, 11 mM D-Glucose, 25 mM HEPES, 0.96 mM Na2HPO4, pH 7.3) were pre-incubated with varying concentrations of the test compounds or KRH buffer (buffer control) for 15 minutes at room temperature under the dark condition. Then capsaicin solution, which gives 300 nM in assay mixture, was automatically added to the assay plate by the FDSS 6000.
The Acid-induced changes in the intracellular calcium concentration were monitored using FDSS 6000 (Hamamatsu Photonics, Japan), a fluorometric imaging system. The cell suspension in resting buffer (HBSS supplemented with 10 mM HEPES, pH 7.4) were pre-incubated with varying concentrations of the test compounds or resting buffer (buffer control) for 15 minutes at room temperature under the dark condition. The cells were automatically added the stimulating solution (HBSS supplemented with MES, final assay buffer pH5.8) by the FDSS 6000.
The monitoring of the changes in the fluorescence signals (λex=340 nm/380 nm, λem=510-520 nm) was initiated at 1 minute prior to the addition of capsaicin solution or acidic buffer and continued for 5 minute.

Chain of human VR1 (Q8NER1 whole entry): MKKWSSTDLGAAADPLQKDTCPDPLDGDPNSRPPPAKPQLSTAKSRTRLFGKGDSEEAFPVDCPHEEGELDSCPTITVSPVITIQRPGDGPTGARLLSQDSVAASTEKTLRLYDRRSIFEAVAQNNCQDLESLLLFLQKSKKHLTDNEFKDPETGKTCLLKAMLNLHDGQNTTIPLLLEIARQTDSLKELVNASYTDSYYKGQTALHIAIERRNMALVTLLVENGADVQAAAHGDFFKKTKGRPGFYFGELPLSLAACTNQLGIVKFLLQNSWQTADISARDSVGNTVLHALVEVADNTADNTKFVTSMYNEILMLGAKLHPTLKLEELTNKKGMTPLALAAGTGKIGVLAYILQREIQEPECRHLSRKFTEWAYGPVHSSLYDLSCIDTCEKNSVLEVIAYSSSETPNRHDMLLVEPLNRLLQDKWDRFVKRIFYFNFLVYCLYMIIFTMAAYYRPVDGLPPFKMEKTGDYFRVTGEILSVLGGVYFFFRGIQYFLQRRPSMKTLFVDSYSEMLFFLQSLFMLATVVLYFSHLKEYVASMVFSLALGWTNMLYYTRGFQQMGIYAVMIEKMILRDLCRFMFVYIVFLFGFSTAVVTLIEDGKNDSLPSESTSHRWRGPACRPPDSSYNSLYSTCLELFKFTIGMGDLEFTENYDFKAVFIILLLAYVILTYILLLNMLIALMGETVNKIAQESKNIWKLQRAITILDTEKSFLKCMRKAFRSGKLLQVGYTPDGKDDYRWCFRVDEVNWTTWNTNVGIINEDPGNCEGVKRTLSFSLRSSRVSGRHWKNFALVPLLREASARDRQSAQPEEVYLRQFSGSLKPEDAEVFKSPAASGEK

Broadly, the IC50 is the concentration that inhibits the measured activity by half. A high value points to lower potency. The compound `CC(NC(=O)c1ccc2nc(C(C)(C)C(F)(F)F)ccc2c1)c1ccc2[nH]c(=O)[nH]c2c1` (stereo not shown) [Example C9, N-[1-(2-oxo-2,3-dihydro-1H-benzimidazol-5-yl)ethyl]-2-(2,2,2-trifluoro-1,1-dimethylethyl)quinoline-6-carboxamide] showed an IC50 of 151 nM.

`CC(C)(C)c1ccc2cc(C(=O)NCc3ccnc4ccccc34)ccc2c1` [Example A2] registered an IC50 of 17 nM.

The compound `CC1(c2ccc3cc(C(=O)NCc4ccnc5ccccc45)ccc3c2)CC1` [Example A7, 6-(1-methylcyclopropyl)-N-(quinolin-4-ylmethyl)-2-naphthamide] registered an IC50 of 140 nM. This IC50 lies about 8.2-fold higher than the previous one.

`C[C@@H](NC(=O)c1ccc2nc(C(C)(C)C)ccc2c1)c1ccc2[nH]nnc2c1` [Example C1, N-[(1R)-1-(1H-1,2,3-benzotriazol-6-yl)ethyl]-2-tert-butylquinoline-6-carboxamide] registered an IC50 of 39.2 nM. Compared with the last compound, the IC50 is about 3.6-fold lower.
